US20100041620A1, “METHODS FOR IMPROVING FRONTAL BRAIN BIOENERGETIC METABOLISM” (priority 2008, published 2010)

Key:
[1] = test system: anterior cingulate cortex (ACC); test: 31P magnetic resonance spectroscopic imaging (3D-CSI, 4 Tesla) of phosphorus metabolites, anterior cingulate cortex; type: in vivo, human
Description: (§1) ^31P data were collected using a three-dimensional chemical shift imaging (3D-CSI) technique at 4 Tesla in healthy middle-aged individuals. The use of 3D-CSI at high field has several advantages over previous methods: (1) increased spectral dispersion, which allows for increased precision of metabolite quantification; (2) post-processing grid shifting that allows for 3D placement of voxels of interest; and (3) the ability to co-register voxel placement between baseline and post-treatment follow-up. High-energy metabolite peaks quantified in the present study include phosphocreatine (PCr), β-nucleoside triphosphate (NTP, ATP in brain), and inorganic phosphate (Pi). Phospholipid membrane metabolite peaks quantified include anabolites, phosphomonoesters (PME), including phosphoethanolamine (PE) and phosphocholine (PC), and catabolites, phosphodiesters (PDE), including glycerophosphoethanolamine (GPE) and glycerolphosphocholine (GPC). A region of interest approach was used to examine phosphorus metabolite levels in the anterior cingulate cortex (ACC), given the notable age-related decline in frontal brain metabolism and impairment of frontally-mediated cognitive functions. A comparison region placed in the parieto-occipital cortex (POC) was also evaluated. It was hypothesized that oral supplementation with citicoline would improve frontal bioenergetic metabolism via elevations in availability of high-energy phosphates, as well as alteration of membrane phospholipid turnover by providing additional membrane precursors.
(§2) Subjects included sixteen neurologically and psychiatrically healthy adults (mean age=47.3±5.4 years; 8 females, 8 males). Trained research technicians administered a structured clinical psychiatric interview using the Structured Clinical Interview for DSM-IV (SCID). All subjects were free of Axis I diagnoses, neurological illness, severe medical problems, and psychoactive substance use.
(§3) Subjects were randomly assigned to receive a six-week supply of either 500 mg (4 males and 4 females) or 2000 mg (4 males and 4 females) of Cognizin® Citicoline (Kyowa Hakko Kogyo Co., Ltd., JAPAN). Subjects were instructed to take one capsule every day (500 mg group) or four capsules every day in a single dose (2000 mg group) for six weeks. […] Magnetic resonance spectroscopy (MRS) was completed on all subjects in two imaging sessions: one prior to beginning treatment (baseline) and one after completing six weeks of treatment.
(§4) All proton imaging was performed using the proton channel of the dual tuned open face proton-phosphorus TEM whole-head coil from Bioengineering Inc. (Minneapolis, Minn.) operating at a nominal frequency of 170.3 MHz. A 2D gradient-recalled echo imaging sequence (12 seconds duration) was used to acquire a single image in all three spatial dimensions (sagittal, coronal, axial) to quickly determine the patient's position and angle. High-contrast, T1-weighted sagittal, coronal images as well as T1 and T2-weighted transverse images of the entire brain were acquired using a three-dimensional, magnetization-prepared FLASH imaging sequence (3D-MP FLASH), allowing for clear segmentation between grey-matter, white-matter, and CSF, as well as clearly delineating between the different anatomical regions of interest. This approach was used to optimize ^31P-MRSI voxel positioning and volumetric correction in the regions of interest.
(§5) Phosphorus MRSI was performed using the phosphorus channel of the dual tuned proton-phosphorus TEM whole-head coil from Bioengineering Inc. (Minneapolis, Minn.) operating at 68.9 MHz. Phosphorus MRSI data were recorded using a three-dimensional chemical shift imaging (3D-CSI) sequence (Garraux, Neuroimage 10:149-162, 1999). […]

[2] = test system: parieto-occipital cortex (POC); test: 31P magnetic resonance spectroscopic imaging (3D-CSI, 4 Tesla) of phosphorus metabolites, parieto-occipital cortex comparison region; type: in vivo, human; details: 6 weeks oral citicoline, doses pooled, mean ± SD
Description: as §1, §2, §3, §4, §5

[3] = six weeks of citicoline supplementation, decrease
[4] = six weeks of citicoline supplementation, increase

C[N+](C)(C)CCOP(=O)(O)OP(=O)([O-])OC[C@H]1O[C@@H](n2ccc(N)nc2=O)[C@H](O)[C@@H]1O [citicoline, cytidine 5′-diphosphocholine]
PCr, metabolite ratio relative to the total 31P signal ([1]; 6 weeks oral citicoline, 500 and 2000 mg/day groups pooled, mean ± SD, baseline .154 ± .019, p .02): .162 ± .015
PCr/Pi ([1]; 6 weeks oral citicoline, doses pooled, mean ± SD, baseline 2.17 ± .46, p .03): 2.82 ± 1.04
PC, metabolite ratio relative to the total 31P signal ([1]; 6 weeks oral citicoline, doses pooled, mean ± SD, baseline .026 ± .010, p .02): .019 ± .008
GPE, metabolite ratio relative to the total 31P signal ([1]; 6 weeks oral citicoline, doses pooled, mean ± SD, baseline .039 ± .010, p .01): .030 ± .009
PE, metabolite ratio relative to the total 31P signal ([1]; 6 weeks oral citicoline, doses pooled, mean ± SD, baseline .043 ± .015, p .04): .054 ± .008
GPC, metabolite ratio relative to the total 31P signal ([1]; 6 weeks oral citicoline, doses pooled, mean ± SD, baseline .051 ± .015, ns): .047 ± .016
β-NTP, metabolite ratio relative to the total 31P signal ([1]; 6 weeks oral citicoline, doses pooled, mean ± SD, baseline .066 ± .012, p .05): .075 ± .014
PME, metabolite ratio relative to the total 31P signal ([1]; 6 weeks oral citicoline, doses pooled, mean ± SD, baseline .069 ± .016, ns): .073 ± .012
Pi, metabolite ratio relative to the total 31P signal ([1]; 6 weeks oral citicoline, doses pooled, mean ± SD, baseline .073 ± .012, p .15): .065 ± .022
PDE, metabolite ratio relative to the total 31P signal ([1]; 6 weeks oral citicoline, doses pooled, mean ± SD, baseline .183 ± .032, p .07): .154 ± .049
decreased GPE, change from baseline [1, 3]: 23%
decreased PC, change from baseline [1, 3]: 29%
increased PCr/Pi, change from baseline ([1]; six weeks of citicoline supplementation, doses pooled, increase): 32%
increased PCr, change from baseline [1, 4]: 7%
increased PE, change from baseline [1, 4]: 26%
increased β-NTP, change from baseline [1, 4]: 14%
Pi, metabolite ratio relative to the total 31P signal ([1]; six weeks, 2000 mg/day group, baseline 0.069±0.010, p=0.57): 0.073±0.019
PCr/Pi ratio ([1]; six weeks, 2000 mg/day group, baseline 2.41±0.52, p=0.84): 2.33±0.61
increased PCr/Pi, change from baseline ([1]; six weeks, low dose (500 mg), increase): 66%
decreased Pi, change from baseline ([1]; six weeks, low dose only (500 mg), decrease): 26%
PCr/Pi ([2]; baseline 2.30 ± .34, ns): 2.38 ± .53
PC, metabolite ratio relative to the total 31P signal ([2]; baseline .023 ± .009, ns): .026 ± .012
GPE, metabolite ratio relative to the total 31P signal ([2]; baseline .034 ± .011, ns): .032 ± .014
GPC, metabolite ratio relative to the total 31P signal ([2]; baseline .047 ± .017, ns): .047 ± .010
β-NTP, metabolite ratio relative to the total 31P signal ([2]; baseline .063 ± .009, ns): .066 ± .010
PE, metabolite ratio relative to the total 31P signal ([2]; baseline .065 ± .009, ns): .058 ± .010
Pi, metabolite ratio relative to the total 31P signal ([2]; baseline .072 ± .010, ns): .075 ± .013
PME, metabolite ratio relative to the total 31P signal ([2]; baseline .088 ± .015, ns): .084 ± .011
PCr, metabolite ratio relative to the total 31P signal ([2]; baseline .164 ± .016, ns): .173 ± .015
PDE, metabolite ratio relative to the total 31P signal ([2]; baseline .165 ± .029, ns): .152 ± .030
